Data published in ChEMBL document CHEMBL2346657, “Synthesis of novel 2-amino-4-(5'-substituted 2'-phenyl-1H-indol-3'-yl)-6-aryl-4H-pyran-3-carbonitrile derivatives as antimicrobial and antioxidant agents” (2013).
The source made the active and inactive calls. Unless noted, the rule behind the calls is not given here.

Columns and labels:
Type in all cases: functional
[1] = tested on: Staphylococcus aureus; assay: Antimicrobial activity against Staphylococcus aureus ATCC 29513 at 750 ug/ml after 24 hrs by cup plate method; details: ATCC 29513, 24 h, read-out: IZ
[2] = tested on: Aspergillus terreus; assay: Antimicrobial activity against Aspergillus terreus MTCC 1782 at 1000 ug/ml after 72 hrs by cup plate method; details: MTCC 1782, 72 h, read-out: IZ
[3] = tested on: Aspergillus oryzae; assay: Antimicrobial activity against Aspergillus oryzae MTCC 3567 at 1000 ug/ml after 72 hrs by cup plate method; details: MTCC 3567, 72 h, read-out: IZ
[4] = tested on: Aspergillus niger; assay: Antimicrobial activity against Aspergillus niger MTCC 281 at 750 ug/ml after 72 hrs by cup plate method; details: MTCC 281, 72 h, read-out: IZ
[5] = tested on: Aspergillus oryzae; assay: Antimicrobial activity against Aspergillus oryzae MTCC 3567 at 750 ug/ml after 72 hrs by cup plate method; details: MTCC 3567, 72 h, read-out: IZ
[6] = tested on: Staphylococcus aureus; assay: Antimicrobial activity against Staphylococcus aureus ATCC 29513 at 500 ug/ml after 24 hrs by cup plate method; details: ATCC 29513, 24 h, read-out: IZ
[7] = tested on: Escherichia coli; assay: Antimicrobial activity against Escherichia coli MTCC 723 at 500 ug/ml after 24 hrs by cup plate method; details: MTCC 723, 24 h, read-out: IZ
[8] = tested on: Pseudomonas aeruginosa; assay: Antimicrobial activity against Pseudomonas aeruginosa MTCC 1688 at 1000 ug/ml after 24 hrs by cup plate method; details: MTCC 1688, 24 h, read-out: IZ
[9] = tested on: Escherichia coli; assay: Antimicrobial activity against Escherichia coli MTCC 723 at 750 ug/ml after 24 hrs by cup plate method; details: MTCC 723, 24 h, read-out: IZ
[10] = tested on: Aspergillus oryzae; assay: Antimicrobial activity against Aspergillus oryzae MTCC 3567 at 500 ug/ml after 72 hrs by cup plate method; details: MTCC 3567, 72 h, read-out: IZ
[11] = Antioxidant activity assessed as ferric ion reducing activity at 75 ug/ml by FRAP assay
[12] = tested on: Aspergillus terreus; assay: Antimicrobial activity against Aspergillus terreus MTCC 1782 at 500 ug/ml after 72 hrs by cup plate method; details: MTCC 1782, 72 h, read-out: IZ
[13] = tested on: Klebsiella pneumoniae; assay: Antimicrobial activity against Klebsiella pneumoniae NCTC 13368 at 1000 ug/ml after 24 hrs by cup plate method; details: NCTC 13368, 24 h, read-out: IZ
[14] = tested on: Aspergillus terreus; assay: Antimicrobial activity against Aspergillus terreus MTCC 1782 at 750 ug/ml after 72 hrs by cup plate method; details: MTCC 1782, 72 h, read-out: IZ
[15] = tested on: Klebsiella pneumoniae; assay: Antimicrobial activity against Klebsiella pneumoniae NCTC 13368 at 500 ug/ml after 24 hrs by cup plate method; details: NCTC 13368, 24 h, read-out: IZ
[16] = tested on: Aspergillus niger; assay: Antimicrobial activity against Aspergillus niger MTCC 281 at 1000 ug/ml after 72 hrs by cup plate method; details: MTCC 281, 72 h, read-out: IZ
[17] = tested on: Aspergillus flavus; assay: Antimicrobial activity against Aspergillus flavus MTCC 1973 at 750 ug/ml after 72 hrs by cup plate method; details: MTCC 1973, 72 h, read-out: IZ
[18] = Antioxidant activity assessed as metal chelating activity by measuring inhibition of ferrozine-Fe2+ complex formation at 25 to 100 ug/ml
[19] = tested on: Pseudomonas aeruginosa; assay: Antimicrobial activity against Pseudomonas aeruginosa MTCC 1688 at 750 ug/ml after 24 hrs by cup plate method; details: MTCC 1688, 24 h, read-out: IZ
[20] = tested on: Aspergillus flavus; assay: Antimicrobial activity against Aspergillus flavus MTCC 1973 at 1000 ug/ml after 72 hrs by cup plate method; details: MTCC 1973, 72 h, read-out: IZ
[21] = tested on: Aspergillus flavus; assay: Antimicrobial activity against Aspergillus flavus MTCC 1973 at 500 ug/ml after 72 hrs by cup plate method; details: MTCC 1973, 72 h, read-out: IZ
[22] = tested on: Aspergillus niger; assay: Antimicrobial activity against Aspergillus niger MTCC 281 at 500 ug/ml after 72 hrs by cup plate method; details: MTCC 281, 72 h, read-out: IZ
[23] = tested on: Escherichia coli; assay: Antimicrobial activity against Escherichia coli MTCC 723 at 1000 ug/ml after 24 hrs by cup plate method; details: MTCC 723, 24 h, read-out: IZ
[24] = Antioxidant activity assessed as metal chelating activity by measuring inhibition of ferrozine-Fe2+ complex formation at 100 ug/ml; parameters: scale not given: the % may be the effect or the level left
[25] = tested on: Pseudomonas aeruginosa; assay: Antimicrobial activity against Pseudomonas aeruginosa MTCC 1688 at 500 ug/ml after 24 hrs by cup plate method; details: MTCC 1688, 24 h, read-out: IZ
[26] = tested on: Klebsiella pneumoniae; assay: Antimicrobial activity against Klebsiella pneumoniae NCTC 13368 at 750 ug/ml after 24 hrs by cup plate method; details: NCTC 13368, 24 h, read-out: IZ
[27] = tested on: Staphylococcus aureus; assay: Antimicrobial activity against Staphylococcus aureus ATCC 29513 at 1000 ug/ml after 24 hrs by cup plate method; details: ATCC 29513, 24 h, read-out: IZ
[28] = tested on: Radical scavenging activity; assay: Antioxidant activity assessed as DPPH radical scavenging activity at 75 ug/ml
[29] = tested on: Radical scavenging activity; assay: Antioxidant activity assessed as DPPH radical scavenging activity at 50 ug/ml

Q: Which zone of inhibition at 750 µg/mL [1] does the source give for N#Cc1c(N)c2c(N)c3c(nc2oc1=O)OC(c1ccc(Cl)cc1)=CC3c1c(-c2ccccc2)[nH]c2ccc(Cl)cc12 (centres undefined) here?
A: 12 mm

Q: And the zone of inhibition at 1000 µg/mL [2]?
A: 13 mm

Q: And the zone of inhibition at 1000 µg/mL [3]?
A: 3 mm

Q: And the zone of inhibition at 750 µg/mL [4]?
A: 8 mm

Q: And the zone of inhibition at 750 µg/mL [5]?
A: 3 mm

Q: What about the zone of inhibition at 500 µg/mL [6] of the same compound?
A: 12 mm

Q: What about the zone of inhibition at 500 µg/mL [7] of the same compound?
A: 11 mm

Q: And the zone of inhibition at 1000 µg/mL [8]?
A: 3 mm

Q: What about the zone of inhibition at 750 µg/mL [9] of the same compound?
A: 12 mm

Q: And the zone of inhibition at 500 µg/mL [10]?
A: 9 mm

Q: And the Activity [11]?
A: Active

Q: And the zone of inhibition at 500 µg/mL [12]?
A: 12 mm

Q: And the zone of inhibition at 1000 µg/mL [13]?
A: 13 mm

Q: What about the zone of inhibition at 750 µg/mL [14] of the same compound?
A: 13 mm

Q: What about the zone of inhibition at 500 µg/mL [15] of the same compound?
A: 13 mm

Q: And the zone of inhibition at 1000 µg/mL [16]?
A: 10 mm

Q: What about the zone of inhibition at 750 µg/mL [17] of the same compound?
A: 9 mm

Q: And the Activity [18]?
A: Active

Q: What about the zone of inhibition at 750 µg/mL [19] of the same compound?
A: 8 mm

Q: What about the zone of inhibition at 1000 µg/mL [20] of the same compound?
A: 8 mm

Q: And the zone of inhibition at 500 µg/mL [21]?
A: 10 mm

Q: And the zone of inhibition at 500 µg/mL [22]?
A: 8 mm

Q: What about the zone of inhibition at 1000 µg/mL [23] of the same compound?
A: 14 mm

Q: What about the Activity [24] of the same compound?
A: 79.7%

Q: And the zone of inhibition at 500 µg/mL [25]?
A: 9 mm

Q: What about the zone of inhibition at 750 µg/mL [26] of the same compound?
A: 13 mm

Q: And the zone of inhibition at 1000 µg/mL [27]?
A: 10 mm

Q: With O=c1[nH]cnc2c1C(c1c(-c3ccccc3)[nH]c3ccc(Cl)cc13)C=C(c1ccc(Cl)cc1)O2 (centres undefined) as the compound, how does the zone of inhibition at 750 µg/mL [1] read?
A: 9 mm

Q: What about the zone of inhibition at 1000 µg/mL [2] of the same compound?
A: 5 mm

Q: What about the zone of inhibition at 1000 µg/mL [3] of the same compound?
A: 3 mm

Q: And the zone of inhibition at 750 µg/mL [4]?
A: 5 mm

Q: What about the zone of inhibition at 750 µg/mL [5] of the same compound?
A: 3 mm

Q: And the zone of inhibition at 500 µg/mL [6]?
A: 9 mm

Q: What about the zone of inhibition at 500 µg/mL [7] of the same compound?
A: 9 mm

Q: What about the zone of inhibition at 1000 µg/mL [8] of the same compound?
A: 8 mm

Q: What about the zone of inhibition at 750 µg/mL [9] of the same compound?
A: 9 mm

Q: What about the zone of inhibition at 500 µg/mL [10] of the same compound?
A: 3 mm

Q: What about the zone of inhibition at 500 µg/mL [12] of the same compound?
A: 5 mm

Q: And the zone of inhibition at 1000 µg/mL [13]?
A: 12 mm

Q: And the zone of inhibition at 750 µg/mL [14]?
A: 5 mm

Q: What about the zone of inhibition at 500 µg/mL [15] of the same compound?
A: 12 mm

Q: What about the zone of inhibition at 1000 µg/mL [16] of the same compound?
A: 5 mm

Q: And the zone of inhibition at 750 µg/mL [17]?
A: 4 mm

Q: What about the Activity [18] of the same compound?
A: Active

Q: What about the Activity [28] of the same compound?
A: Active

Q: And the zone of inhibition at 750 µg/mL [19]?
A: 8 mm

Q: And the Activity [29]?
A: Active

Q: And the zone of inhibition at 1000 µg/mL [20]?
A: 4 mm

Q: What about the zone of inhibition at 500 µg/mL [21] of the same compound?
A: 4 mm

Q: And the zone of inhibition at 500 µg/mL [22]?
A: 6 mm

Q: What about the zone of inhibition at 1000 µg/mL [23] of the same compound?
A: 8 mm

Q: What about the zone of inhibition at 500 µg/mL [25] of the same compound?
A: 8 mm

Q: What about the zone of inhibition at 750 µg/mL [26] of the same compound?
A: 12 mm

Q: What about the zone of inhibition at 1000 µg/mL [27] of the same compound?
A: 12 mm
